Measurements published in patent US12077503B2, “Substituted cyclic amides and their use as herbicides” (FMC CORPORATION, priority 2015, dated 2024).

Tests used:
Assay type in all cases: in vivo
[1] = test system: velvetleaf (Abutilon theophrasti); assay: Test G Post-Emergence Protocol
Method: (§1) Seeds of corn (Zea mays), giant foxtail (Setaria faberi), barnyardgrass (Echinochloa crus-galli), ivy-leaved morning glory (Ipomoea hederacea), redroot pigweed (Amaranthus retroflexus) and velvetleaf (Abutilon theophrasti) were sown in standard soil in pots. After cultivation for 8 days under controlled conditions in a glasshouse (at 24/16° C., day/night; 14 hours light; 65% humidity), the plants were sprayed with an aqueous spray solution derived from the formulation of the technical active ingredient in acetone/water (50:50) solution containing 0.5% Tween 20 (polyoxyethylene sorbitan monolaurate, CAS RN 9005-64-5) to give a final dose of 15.625, 62.5 or 250 g/ha of test compound.
(§2) The test plants were then grown on under controlled conditions in a glasshouse (at 24/16° C., day/night; 14 hours light; 65% humidity) and watered twice daily. After 13 days the test was evaluated (100=total damage to plant; 0=no damage to plant). A dash (-) means no test result.

[2] = test system: giant foxtail (Setaria faberi); assay: Test G Post-Emergence Protocol
Method: as §1, §2

[3] = test system: redroot pigweed (Amaranthus retroflexus); assay: Test G Post-Emergence Protocol
Method: as §1, §2

[4] = test system: barnyardgrass (Echinochloa crus-galli); assay: Test G Post-Emergence Protocol
Method: as §1, §2

corn (Zea mays) [5] = assay: Test G Post-Emergence Protocol
Method: as §1, §2

[6] = test system: ivy-leaved morning glory (Ipomoea hederacea); assay: Test G Post-Emergence Protocol
Method: as §1, §2

[7] = test system: velvetleaf (Abutilon theophrasti); assay: Test G Pre-Emergence Protocol; conditions: evaluated after 13 days
Method: as §1, with “one day” for “8 days”
as §2

[8] = test system: giant foxtail (Setaria faberi); assay: Test G Pre-Emergence Protocol; conditions: evaluated after 13 days
Method: as §1, with “one day” for “8 days”
as §2

[9] = test system: redroot pigweed (Amaranthus retroflexus); assay: Test G Pre-Emergence Protocol; conditions: evaluated after 13 days
Method: as §1, with “one day” for “8 days”
as §2

[10] = test system: barnyardgrass (Echinochloa crus-galli); assay: Test G Pre-Emergence Protocol; conditions: evaluated after 13 days
Method: as §1, with “one day” for “8 days”
as §2

corn (Zea mays) [11] = assay: Test G Pre-Emergence Protocol; conditions: evaluated after 13 days
Method: as §1, with “one day” for “8 days”
as §2

[12] = test system: ivy-leaved morning glory (Ipomoea hederacea); assay: Test G Pre-Emergence Protocol; conditions: evaluated after 13 days; for Morningglory, Ivy-leaved damage rating (100=total damage to plant; 0=no damage to plant): 250 g ai/ha
Method: as §1, with “one day” for “8 days”
as §2

[13] = 15.625 g ai/ha, evaluated after 13 days (100=total damage to plant; 0=no damage to plant)
[14] = 62.5 g ai/ha, evaluated after 13 days
[15] = 250 g ai/ha, evaluated after 13 days
[16] = 62.5 g ai/ha, 100=total damage to plant, 0=no damage to plant

COc1ccc([C@@H]2CN(C)C(=O)[C@H]2C(=O)Nc2ccccc2F)cc1[N+](=O)[O-] (racemic) [Compound 1417]
Velvetleaf damage rating [1, 13]: 10
Velvetleaf damage rating (100=total damage to plant; 0=no damage to plant) [1, 14]: 20
damage to plant, Velvetleaf (100=total damage to plant; 0=no damage to plant) [1, 15]: 20
Foxtail, Giant damage rating [2, 13]: 0
Foxtail, Giant damage rating (100=total damage to plant; 0=no damage to plant) [2, 14]: 70
damage to plant, Foxtail, Giant (100=total damage to plant; 0=no damage to plant) [2, 15]: 70
Pigweed, Redroot damage rating [3, 13]: 20
Pigweed, Redroot damage rating (100=total damage to plant; 0=no damage to plant) [3, 14]: 10
damage to plant, Pigweed, Redroot (100=total damage to plant; 0=no damage to plant) [3, 15]: 30
Barnyardgrass damage rating [4, 13]: 10
Barnyardgrass damage rating (100=total damage to plant; 0=no damage to plant) [4, 14]: 40
damage to plant, Barnyardgrass (100=total damage to plant; 0=no damage to plant) [4, 15]: 60
Corn damage rating (corn (Zea mays) [5]; [13]): 0
Corn damage rating (100=total damage to plant; 0=no damage to plant) (corn (Zea mays) [5]; [14]): 10
damage to plant, Corn (100=total damage to plant; 0=no damage to plant) (corn (Zea mays) [5]; [15]): 20
Morningglory, Ivy-leaved damage rating [6, 13]: 0
Morningglory, Ivy-leaved damage rating (100=total damage to plant; 0=no damage to plant) [6, 14]: 20
damage to plant, Morningglory, Ivy-leaved (100=total damage to plant; 0=no damage to plant) [6, 15]: 30
Velvetleaf damage rating (100=total damage to plant; 0=no damage to plant) ([7]; 15.625 g ai/ha): 0
plant damage rating, Velvetleaf [7, 16]: 0
Velvetleaf damage rating (100=total damage to plant; 0=no damage to plant) ([7]; 250 g ai/ha): 0
Foxtail, Giant damage rating (100=total damage to plant; 0=no damage to plant) ([8]; 15.625 g ai/ha): 0
plant damage rating, Foxtail, Giant [8, 16]: 80
Foxtail, Giant damage rating (100=total damage to plant; 0=no damage to plant) ([8]; 250 g ai/ha): 90
Pigweed, Redroot damage rating (100=total damage to plant; 0=no damage to plant) ([9]; 15.625 g ai/ha): 0
plant damage rating, Pigweed, Redroot [9, 16]: 0
Pigweed, Redroot damage rating (100=total damage to plant; 0=no damage to plant) ([9]; 250 g ai/ha): 30
Barnyardgrass damage rating (100=total damage to plant; 0=no damage to plant) ([10]; 15.625 g ai/ha): 0
plant damage rating, Barnyardgrass [10, 16]: 60
Barnyardgrass damage rating (100=total damage to plant; 0=no damage to plant) ([10]; 250 g ai/ha): 80
Corn damage rating (100=total damage to plant; 0=no damage to plant) (corn (Zea mays) [11]; 15.625 g ai/ha): 0
plant damage rating, Corn (corn (Zea mays) [11]; [16]): 0
Corn damage rating (100=total damage to plant; 0=no damage to plant) (corn (Zea mays) [11]; 250 g ai/ha): 0
Morning-glory, Ivy-leaved damage rating (100=total damage to plant; 0=no damage to plant) ([12]; 15.625 g ai/ha): 0
plant damage rating, Morningglory, Ivy-leaved [12, 16]: 0
Morningglory, Ivy-leaved damage rating (100=total damage to plant; 0=no damage to plant) [12]: 30

COc1c(Cl)ccc([C@H]2CN(C)C(=O)[C@@H]2C(=O)Nc2cccc(F)c2F)c1F (racemic) [Compound 1476]
pest or weed control at 15.625 g/ha ([1]; Abutilon theophrasti, post-emergence, 312 h, 15.625 g ai/ha, evaluated after 13 days (100=total damage to plant; 0=no damage to plant), read-out: Velvetleaf damage rating): 10%
pest or weed control at 62.5 g/ha ([1]; Abutilon theophrasti, post-emergence, 312 h, 62.5 g ai/ha, evaluated after 13 days, read-out: Velvetleaf damage rating (100=total damage to plant; 0=no damage to plant)): 0%
pest or weed control at 250 g/ha ([1]; Abutilon theophrasti, post-emergence, 312 h, 250 g ai/ha, evaluated after 13 days, read-out: damage to plant, Velvetleaf (100=total damage to plant; 0=no damage to plant)): 10%
pest or weed control at 15.625 g/ha ([2]; Setaria faberi, post-emergence, 312 h, 15.625 g ai/ha, evaluated after 13 days (100=total damage to plant; 0=no damage to plant), read-out: Foxtail, Giant damage rating): 60%
pest or weed control at 62.5 g/ha ([2]; Setaria faberi, post-emergence, 312 h, 62.5 g ai/ha, evaluated after 13 days, read-out: Foxtail, Giant damage rating (100=total damage to plant; 0=no damage to plant)): 70%
pest or weed control at 250 g/ha ([2]; Setaria faberi, post-emergence, 312 h, 250 g ai/ha, evaluated after 13 days, read-out: damage to plant, Foxtail, Giant (100=total damage to plant; 0=no damage to plant)): 70%
pest or weed control at 15.625 g/ha ([3]; Amaranthus retroflexus, post-emergence, 312 h, 15.625 g ai/ha, evaluated after 13 days (100=total damage to plant; 0=no damage to plant), read-out: Pigweed, Redroot damage rating): 10%
pest or weed control at 62.5 g/ha ([3]; Amaranthus retroflexus, post-emergence, 312 h, 62.5 g ai/ha, evaluated after 13 days, read-out: Pigweed, Redroot damage rating (100=total damage to plant; 0=no damage to plant)): 0%
pest or weed control at 250 g/ha ([3]; Amaranthus retroflexus, post-emergence, 312 h, 250 g ai/ha, evaluated after 13 days, read-out: damage to plant, Pigweed, Redroot (100=total damage to plant; 0=no damage to plant)): 10%
pest or weed control at 15.625 g/ha ([4]; Echinochloa crus-galli, post-emergence, 312 h, 15.625 g ai/ha, evaluated after 13 days (100=total damage to plant; 0=no damage to plant), read-out: Barnyardgrass damage rating): 40%
pest or weed control at 62.5 g/ha ([4]; Echinochloa crus-galli, post-emergence, 312 h, 62.5 g ai/ha, evaluated after 13 days, read-out: Barnyardgrass damage rating (100=total damage to plant; 0=no damage to plant)): 50%
pest or weed control at 250 g/ha ([4]; Echinochloa crus-galli, post-emergence, 312 h, 250 g ai/ha, evaluated after 13 days, read-out: damage to plant, Barnyardgrass (100=total damage to plant; 0=no damage to plant)): 60%
plant injury at 15.625 g/ha (corn (Zea mays) [5]; Zea mays, post-emergence, 312 h, 15.625 g ai/ha, evaluated after 13 days (100=total damage to plant; 0=no damage to plant), read-out: Corn damage rating): 10%
plant injury at 62.5 g/ha (corn (Zea mays) [5]; Zea mays, post-emergence, 312 h, 62.5 g ai/ha, evaluated after 13 days, read-out: Corn damage rating (100=total damage to plant; 0=no damage to plant)): 20%
plant injury at 250 g/ha (corn (Zea mays) [5]; Zea mays, post-emergence, 312 h, 250 g ai/ha, evaluated after 13 days, read-out: damage to plant, Corn (100=total damage to plant; 0=no damage to plant)): 70%
pest or weed control at 15.625 g/ha ([6]; Ipomoea, post-emergence, 312 h, 15.625 g ai/ha, evaluated after 13 days (100=total damage to plant; 0=no damage to plant), read-out: Morningglory, Ivy-leaved damage rating): 20%
pest or weed control at 62.5 g/ha ([6]; Ipomoea, post-emergence, 312 h, 62.5 g ai/ha, evaluated after 13 days, read-out: Morningglory, Ivy-leaved damage rating (100=total damage to plant; 0=no damage to plant)): 20%
pest or weed control at 250 g/ha ([6]; Ipomoea, post-emergence, 312 h, 250 g ai/ha, evaluated after 13 days, read-out: damage to plant, Morningglory, Ivy-leaved (100=total damage to plant; 0=no damage to plant)): 60%
Velvetleaf damage rating (100=total damage to plant; 0=no damage to plant) ([7]; 15.625 g ai/ha): 0
Velvetleaf damage rating (100=total damage to plant; 0=no damage to plant) ([7]; 250 g ai/ha): 0
pest or weed control at 62.5 g/ha ([7]; Abutilon theophrasti, pre-emergence, 312 h, 62.5 g ai/ha, 100=total damage to plant, 0=no damage to plant, read-out: plant damage rating, Velvetleaf): 0%
Foxtail, Giant damage rating (100=total damage to plant; 0=no damage to plant) ([8]; 15.625 g ai/ha): 70
Foxtail, Giant damage rating (100=total damage to plant; 0=no damage to plant) ([8]; 250 g ai/ha): 80
pest or weed control at 62.5 g/ha ([8]; Setaria faberi, pre-emergence, 312 h, 62.5 g ai/ha, 100=total damage to plant, 0=no damage to plant, read-out: plant damage rating, Foxtail, Giant): 80%
Pigweed, Redroot damage rating (100=total damage to plant; 0=no damage to plant) ([9]; 15.625 g ai/ha): 0
Pigweed, Redroot damage rating (100=total damage to plant; 0=no damage to plant) ([9]; 250 g ai/ha): 0
pest or weed control at 62.5 g/ha ([9]; Amaranthus retroflexus, pre-emergence, 312 h, 62.5 g ai/ha, 100=total damage to plant, 0=no damage to plant, read-out: plant damage rating, Pigweed, Redroot): 0%
Barnyardgrass damage rating (100=total damage to plant; 0=no damage to plant) ([10]; 250 g ai/ha): 80
pest or weed control at 15.625 g/ha ([10]; Echinochloa crus-galli, pre-emergence, 312 h, 15.625 g ai/ha, read-out: Barnyard grass damage rating (100=total damage to plant; 0=no damage to plant)): 60%
pest or weed control at 62.5 g/ha ([10]; Echinochloa crus-galli, pre-emergence, 312 h, 62.5 g ai/ha, 100=total damage to plant, 0=no damage to plant, read-out: plant damage rating, Barnyardgrass): 70%
Corn damage rating (100=total damage to plant; 0=no damage to plant) (corn (Zea mays) [11]; 15.625 g ai/ha): 0
Corn damage rating (100=total damage to plant; 0=no damage to plant) (corn (Zea mays) [11]; 250 g ai/ha): 50
plant injury at 62.5 g/ha (corn (Zea mays) [11]; Zea mays, pre-emergence, 312 h, 62.5 g ai/ha, 100=total damage to plant, 0=no damage to plant, read-out: plant damage rating, Corn): 0%
Morningglory, Ivy-leaved damage rating (100=total damage to plant; 0=no damage to plant) [12]: 0
pest or weed control at 15.625 g/ha ([12]; Ipomoea, pre-emergence, 312 h, 15.625 g ai/ha, read-out: Morning-glory, Ivy-leaved damage rating (100=total damage to plant; 0=no damage to plant)): 0%
pest or weed control at 62.5 g/ha ([12]; Ipomoea, pre-emergence, 312 h, 62.5 g ai/ha, 100=total damage to plant, 0=no damage to plant, read-out: plant damage rating, Morningglory, Ivy-leaved): 0%
